This is an account of results in patent publication US20130333715A1, “SHAMPOO COMPOSITIONS AND METHODS OF MAKING SAME” (The Procter & Gamble Company, priority 2012, published 2013).

For data set [1] the following is noted: 1:1 complex, fully deprotonated chelant, 25° C., 0.1M ionic strength; cited from earlier work.
The conditions of data set [2]: 1:1 complex, fully deprotonated chelant, 25° C., 0.1M ionic strength; cited from earlier work. The source holds these as a separate data set.
A short description of data set [3]: Calculated conditional stability constants for chelants with Cu^+2 at specified pH. The class given is physicochemical. From the text:
(§1) However, as the pH range of the present compositions are acidic (i.e., less than 7), the log alpha value (αm) is considered to be constant and approximately negligible.

The conditions of data set [4]: 1:1 complex, fully deprotonated chelant, 25° C., 0.1M ionic strength; cited from earlier work. This is another data set of the same source.
A short description of data set [5]: Calculated conditional stability constants for chelants with Ca^+2 at specified pH. The data set is classed as physicochemical.
From the text: as §1
The calculated stability constants for a range of chelants with Fe^+3, Cu^+2, and Ca^+2 are given below in Table 3: […]

Data set [6] is described as follows: Calculated conditional stability constants for chelants with Fe^+3 at specified pH. From the text:
The gradual change in ligand species as pH changes can be represented using alpha (α) coefficients, defined as: [formula] […] By combining stability (K) and alpha (α) constants at a given pH, the formula below provides the effective chelating power of a chelant.

Consider `O=C(O)CN(CCN(CC(=O)O)CC(=O)O)CCN(CC(=O)O)CC(=O)O` [DTPA], for which the “log K Cu” value in data set [1] was 21.4. Also, in data set [2], the “log K Ca” value is reported as 10.75. Also, the “log Conditional Stability Constant (@ pH) Cu^+2” value in data set [3] (pH 2) was 3.34; in data set [3] (pH 3), 6.88; in data set [3] (pH 4), 9.85; in data set [3] (pH 5), 12.24; in data set [3] (pH 6) it was 14.31; in data set [3] (pH 7) it was 16.31. Further, the “log Conditional Stability Constant (@ pH) Cu^+2” value in data set [3] (pH 8) is reported as 18.22. Further, in data set [4], the “log K Fe” value was 16.4. The “log Conditional Stability Constant (@ pH) Ca^+2” value is −7.26 in data set [5] (pH 2); −3.72 in data set [5] (pH 3); −0.75 in data set [5] (pH 4); 1.64 in data set [5] (pH 5); 3.71 in data set [5] (pH 6); 5.71 in data set [5] (pH 7). For the same compound, the “log Conditional Stability Constant (@ pH) Ca^+2” value in data set [5] (pH 8) is reported as 7.62.

As to `O=C(O)CC[C@H](NCCN[C@H](CCC(=O)O)C(=O)O)C(=O)O` [EDDG, ethylenediamine-N,N′-diglutaric acid], in data set [1], the “log K Cu” value is on record as 15.15. In addition, the “log K Ca” value in data set [2] is on record as 2.70.

With `O=C(O)CN(CCN(CC(=O)O)CC(=O)O)CC(=O)O` [EDTA], the “log K Cu” value in data set [1] is listed as 18.78. Besides, the “log K Ca” value in data set [2] is recorded as 10.65. Besides, the “log Conditional Stability Constant (@ pH) Cu^+2” value in data set [3] (pH 2) was 5.45; in data set [3] (pH 3), 8.29; in data set [3] (pH 4), 10.46; in data set [3] (pH 5), 12.45; in data set [3] (pH 6) it was 14.24; in data set [3] (pH 7), 15.55. In addition, in data set [3] (pH 8), the “log Conditional Stability Constant (@ pH) Cu^+2” value is listed as 16.60. Besides, the “log K Fe” value in data set [4] was 14.3. Besides, the “log Conditional Stability Constant (@ pH) Ca^+2” value in data set [5] (pH 2) is given as −2.65; in data set [5] (pH 3), 0.19; in data set [5] (pH 4), 2.36; in data set [5] (pH 5), 4.35; in data set [5] (pH 6), 6.14; in data set [5] (pH 7) it was 7.45. The “log Conditional Stability Constant (@ pH) Ca^+2” value in data set [5] (pH 8) was 8.50.

Consider `O=C(O)CC[C@@H](C(=O)O)N(CC(=O)O)CC(=O)O` [GLD, glutamic acid diacetic acid], for which the “log Conditional Stability Constant (@ pH) Cu^+2” value in data set [3] (pH 2) is reported as −0.42; in data set [3] (pH 3), 3.32; in data set [3] (pH 4) it was 5.75; in data set [3] (pH 5), 7.33; in data set [3] (pH 6), 8.45; in data set [3] (pH 7), 9.47. The “log Conditional Stability Constant (@ pH) Cu^+2” value in data set [3] (pH 8) is listed as 10.47. Besides, the “log Conditional Stability Constant (@ pH) Ca^+2” value was −7.62 in data set [5] (pH 2); −3.88 in data set [5] (pH 3); −1.45 in data set [5] (pH 4); 0.13 in data set [5] (pH 5); 1.25 in data set [5] (pH 6); 2.27 in data set [5] (pH 7). Also, in data set [5] (pH 8), the “log Conditional Stability Constant (@ pH) Ca^+2” value is 3.27.

For `O=C(O)CN(CCN(CC(=O)O)Cc1ccccc1O)Cc1ccccc1O` [HBED], the “log K Cu” value in data set [1] is 9.29. For the same compound, the “log K Ca” value in data set [2] is 9.3. Moreover, the “log K Fe” value in data set [4] was 39.7. Further, the “log Conditional Stability Constant (@ pH) Fe^+3” value in data set [6] (pH 2) was 13.54; in data set [6] (pH 3) it was 17.54; in data set [6] (pH 4) it was 21.52; in data set [6] (pH 5), 25.39; in data set [6] (pH 6), 28.82; in data set [6] (pH 7) it was 31.89. The “log Conditional Stability Constant (@ pH) Fe^+3” value in data set [6] (pH 8) is recorded as 34.85.

For `CC(O)(P(=O)(O)O)P(=O)(O)O` [HEDP], the “log K Cu” value in data set [1] is listed as 11.84. The “log K Ca” value in data set [2] was 6.0. In addition, the “log K Fe” value in data set [4] was 14.1.

Take `O=C(O)CN(CCO)CCN(CC(=O)O)CC(=O)O` [HEDTA]: the “log Conditional Stability Constant (@ pH) Cu^+2” value in data set [3] (pH 2) is listed as 3.39; in data set [3] (pH 3), 6.30; in data set [3] (pH 4) it was 8.85; in data set [3] (pH 5), 10.88; in data set [3] (pH 6), 12.41; in data set [3] (pH 7), 13.53. Moreover, the “log Conditional Stability Constant (@ pH) Cu^+2” value in data set [3] (pH 8) is 14.54. For the same compound, the “log Conditional Stability Constant (@ pH) Ca^+2” value in data set [5] (pH 2) is listed as −5.81; in data set [5] (pH 3), −2.90; in data set [5] (pH 4), −0.35; in data set [5] (pH 5), 1.68; in data set [5] (pH 6), 3.21; in data set [5] (pH 7), 4.33. Besides, the “log Conditional Stability Constant (@ pH) Ca^+2” value in data set [5] (pH 8) is 5.34.

Turning to `O=C(O)CC(NCC(O)CNC(CC(=O)O)C(=O)O)C(=O)O` (stereo not shown) [HPDDS, 2-hydroxypropylendiamin-N—N′-disucinnic acid], the “log K Cu” value in data set [1] is recorded as 12.84. The “log K Ca” value in data set [2] is on record as 2.94. The “log Conditional Stability Constant (@ pH) Cu^+2” value in data set [3] (pH 2) is −4.27; in data set [3] (pH 3), −0.37; in data set [3] (pH 4) it was 2.99; in data set [3] (pH 5) it was 5.40; in data set [3] (pH 6) it was 7.45; in data set [3] (pH 7) it was 9.43. Besides, in data set [3] (pH 8), the “log Conditional Stability Constant (@ pH) Cu^+2” value is reported as 11.21. The “log Conditional Stability Constant (@ pH) Ca^+2” value in data set [5] (pH 2) is −14.17; in data set [5] (pH 3), −10.27; in data set [5] (pH 4), −6.91; in data set [5] (pH 5), −4.50; in data set [5] (pH 6), −2.45; in data set [5] (pH 7) it was 0.47. Besides, the “log Conditional Stability Constant (@ pH) Ca^+2” value in data set [5] (pH 8) is recorded as 1.31.

With `CC(C(=O)O)N(CC(=O)O)CC(=O)O` (stereo not shown) [MGDA, methylglycinediacetic acid], the “log Conditional Stability Constant (@ pH) Cu^+2” value is given as 3.80 in data set [3] (pH 2); 5.84 in data set [3] (pH 3); 7.08 in data set [3] (pH 4); 8.11 in data set [3] (pH 5); 9.11 in data set [3] (pH 6); 10.11 in data set [3] (pH 7). Moreover, the “log Conditional Stability Constant (@ pH) Ca^+2” value was −3.10 in data set [5] (pH 2); −1.06 in data set [5] (pH 3); 0.18 in data set [5] (pH 4); 1.21 in data set [5] (pH 5); 2.21 in data set [5] (pH 6); 3.21 in data set [5] (pH 7). The “log Conditional Stability Constant (@ pH) Ca^+2” value in data set [5] (pH 8) was 4.21.
